From patent US8143254B2, “Methods for modulating ion channels” (Cornell Research Foundation, Inc., priority 2005, dated 2012)

Molecular target: T1, Kv3.4 (UniProt Q63734)
T1 construct: IC50; other: Kv3.4, logistic dose response fit; effect on Kv3.4 currents; other: 1 mM, bath applied; slope of dose response curve; other: Kv3.4
T1 sequence (Q63734 1-625): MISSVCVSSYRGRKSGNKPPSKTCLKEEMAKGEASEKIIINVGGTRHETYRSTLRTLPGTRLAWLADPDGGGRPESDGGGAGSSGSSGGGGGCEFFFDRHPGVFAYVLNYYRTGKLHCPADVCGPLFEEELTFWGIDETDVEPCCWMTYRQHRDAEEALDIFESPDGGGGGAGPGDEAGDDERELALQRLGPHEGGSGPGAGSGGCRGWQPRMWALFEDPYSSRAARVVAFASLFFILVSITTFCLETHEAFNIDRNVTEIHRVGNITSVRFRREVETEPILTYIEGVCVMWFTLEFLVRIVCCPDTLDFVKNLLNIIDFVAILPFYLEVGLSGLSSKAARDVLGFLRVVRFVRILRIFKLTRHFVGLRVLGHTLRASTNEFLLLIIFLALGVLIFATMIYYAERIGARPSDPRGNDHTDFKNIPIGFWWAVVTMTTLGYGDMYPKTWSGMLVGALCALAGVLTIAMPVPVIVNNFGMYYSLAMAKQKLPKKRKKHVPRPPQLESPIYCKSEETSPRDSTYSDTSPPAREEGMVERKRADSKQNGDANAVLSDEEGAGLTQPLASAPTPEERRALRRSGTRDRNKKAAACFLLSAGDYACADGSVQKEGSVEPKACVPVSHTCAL
Experiment: TEVC of X. laevis oocytes expressing Kv3.4
Format: cell-based
Conditions: for effect on Kv3.4 currents: 1 mM, bath applied; for slope of dose response curve: Kv3.4; for IC50: Kv3.4, logistic dose response fit
Excerpt: Kv2.1 mutants were constructed using the QuickChange Multi Site-Directed Mutagenesis Kit (Stratagene, La Jolla, Calif.). […] For oocyte expression, Kv3.4 was in pBF1, Kv4.2 was in pRAT. cRNA transcripts were produced from SacII-linearized (Kv2.1), Mlullinearized (Kv3.4) and Not1-linearized (Kv4.2) DNA templates using the T3 (Kv2.1), SP6 (Kv3.4) and T7 (Kv4.2) mMessage mMachine kits (Ambion, Austin, Tex.). cRNA was quantified by spectrophotometry and its size integrity verified by gel electophoresis. Defolliculated stage V and VI Xenopus laevis oocytes (purchased from Nasco, Grand Island, N.Y.) were injected with 5 ng of cRNA encoding Kv2.1, Kv3.4 or Kv4.2. Chinese Hamster Ovary (CHO) cells were transfected with 0.25 μg Kv2.1 cDNA, 2 μg blank plasmid and 2 μg Green fluorescent Protein in pBOB using Supetfect transfection reagent (Qiagen) 24 hours before whole-cell voltage clamp studies.
Oocytes were bathed in a small-volume Warner oocyte bath and viewed with a Fisher dissection microscope. Bath solution for whole-cell oocyte recordings was (in mM): 96 NaCl, 4 KCl, 0.7 MgCl2, 1 CaCl2, 10 HEPES (pH 7.4); whole-cell oocyte TEVC pipettes were of 0.2-2 M resistance when filled with 3 M KCl. Experiments were performed 24-48 hours after cRNA injection. For assessment of current-voltage relationships in the absence or presence of dabco derivatives, oocytes were held at −80 mV, stepped for 2 seconds at voltages between −80 mV and +60 mV in 20 mV steps (Kv2.1) or between −80 and +50 mV in 10 mV steps (Kv3.4), then held for 500 ms at −40 mV before returning to the holding potential. For assessment of block during wash-in of dabco derivatives at a single voltage, oocytes were held at −80 mV, and repetitively stepped to 0 mV for 2 s with an interpulse interval of 10 s or 60 s as indicated. A range of concentrations of dabco or dabco derivatives were washed in via the bath solution during repetitive single-voltage pulses (after an initial period of 5 pulses with control solution to ensure current stabilization) until equilibrium block was achieved, to establish dose-responses. […] Washout was performed after the highest concentration of blocker was washed in. In cases where washout was achieved, only those recordings in which current returned to within 10% of original current level were used for construction of dose-response curves. […] As controls for this protection analysis, JC638.2a or MTSET were washed in alone until equilibrium block, then washed out.
Data analysis: Current-voltage relationships were obtained by measuring peak current during depolarizing pulses. Inhibition constants for DABCO blockers were calculated after generating a dose response curve by fitting with a logistic dose-response function y=A2+[A1−A2/1+(x/x0)^p], where A1 is the maximum response plateau, A2 is the minimum response plateau, x is drug concentrator, x0 is the IC50, and p the Hill slope. Data analysis was performed using […] 9 (Axon Instruments, Foster City, Calif.) and tabulated in Excel 5.0. Graphs were generated using Origin 6.1. Data are expressed as mean±SEM, with n specifying the number of independent experiments. Statistical significance was assessed by one-way ANOVA with p<0.05 being indicative of significance.

Compound	effect on Kv3.4 currents	slope of dose response curve	IC50 [µM]
c1cc(C[N+]23CCN(CC2)CC3)ccc1C[N+]12CCN(CC1)CC2 [JC638.2α, α,α′-[bis(4-aza-1-azoniabicyclo[2.2.2]octanyl)]p-xylene]	significant inhibition	1.3±0.2	129 ± 20.7
CCCCCCCCCCCCCCCC[N+]12CCN(CC1)CC2 [TA279, 1-aza-4-azonia-4-hexadecylbicyclo[2.2.2]octane]	–	2.8±1.1	0.6 ± 0.1
C(CC[N+]12CCN(CC1)CC2)C[N+]12CCN(CC1)CC2 [TG26]	less effective than TG27	–	–
CCCCCCCCCCCC[N+]12CCN(CC1)CC2 [JE188, 1-aza-4-azonia-4-dodecylbicyclo[2.2.2]octane]	–	0.7±0.1	34.2 ± 10
